Laboratory results reported in patent publication US11845736B2, “Prodrugs of MDMA, MDA, and derivatives thereof” (EmpathBio, Inc., priority 2021, dated 2023).
Converted amounts (≈) assume the structure as drawn. Read-outs that look alike come from different tables or passages of the source.

Columns and labels:
[1] = healthy human subjects, cited from earlier work
[2] = Compound solubility in FaSSIF
[3] = Compound mouse plasma stability
[4] = Compound chemical stability SGF without pepsin
[5] = Compound chemical stability PBS (pH 6.5)
[6] = Compound chemical stability SGF with pepsin
[7] = cited from earlier work; for Cmax / Tmax: healthy human subjects

SMILES	solubility [2]	% Remaining ([3]; 0 minutes)	% Remaining ([3]; 15 minutes)	% Remaining ([3]; 30 minutes)	% Remaining ([3]; 60 minutes)	% Remaining ([4]; 0 minutes)	% Remaining ([4]; 30 minutes)	% Remaining ([4]; 60 minutes)	% Remaining ([4]; 120 minutes)	% Remaining ([4]; 240 minutes)	% Remaining ([5]; PBS pH 6.5, 0 minutes)	% Remaining ([5]; PBS pH 6.5, 30 minutes)	% Remaining ([5]; PBS pH 6.5, 60 minutes)	% Remaining ([5]; PBS pH 6.5, 120 minutes)	% Remaining ([5]; PBS pH 6.5, 240 minutes)	% Remaining ([6]; 0 minutes)	% Remaining ([6]; 30 minutes)	% Remaining ([6]; 60 minutes)	% Remaining ([6]; 120 minutes)	% Remaining ([6]; 240 minutes)	other results
CNC(C)Cc1ccc2c(c1)OCO2 (racemic) [MDMA, 3,4-methylenedioxymethamphetamine]	–	–	–	–	–	–	–	–	–	–	–	–	–	–	–	–	–	–	–	–	Cmax ([1]; 75 mg MDMA): 130.9 ng/mL; T1/2 (elimination half-life) ([1]; 75 mg MDMA): 7.7 h; Tmax ([1]; 75 mg MDMA): 1.8 h; Cmax ([1]; 125 mg MDMA): 236.4 ng/mL; T1/2 (elimination half-life) ([1]; 125 mg MDMA): 8.6 h; Tmax ([1]; 125 mg MDMA): 2.4 h
CCOC(=O)N(C)C(C)Cc1ccc2c(c1)OCO2 (stereo not shown) [Compound 1, ethyl(1-(benzo[d][1,3]dioxol-5-yl)propan-2-yl)(methyl)carbamate]	309 µM (≈ 82 µg/mL)	100.00%	108.51%	87.67%	98.49%	100.00%	103.81%	101.90%	103.81%	104.29%	100.00%	90.48%	90.36%	89.59%	90.28%	100.00%	101.86%	98.61%	103.31%	100.50%	% Remaining ([3]; 120 minutes): 89.31%
CCOC(=O)NC(C)Cc1ccc2c(c1)OCO2 (stereo not shown) [Compound 2, ethyl(1-(benzo[d][1,3]dioxol-5-yl)propan-2-yl)carbamate]	313 µM (≈ 78.8 µg/mL)	100.00%	101.77%	86.60%	89.02%	100.00%	102.53%	101.64%	90.45%	99.40%	100.00%	89.05%	87.87%	91.21%	88.66%	100.00%	100.95%	97.74%	98.18%	99.08%	% Remaining ([3]; 120 minutes): 84.42%
CC(OC(=O)N(C)C(C)Cc1ccc2c(c1)OCO2)OC(=O)C(C)(C)C (stereo not shown) [Compound 3, 1-(((1-(benzo[d][1,3]dioxol-5-yl)propan-2-yl)(methyl)carbamoyl)oxy)ethyl pivalate]	101 µM (≈ 37 µg/mL)	100%	0.0%	0.0%	0.0%	100.00%	97.82%	97.35%	93.65%	94.12%	100.00%	103.45%	107.91%	105.56%	96.60%	100.00%	106.44%	108.51%	103.98%	106.17%	% Remaining ([3]; 120 minutes): 0.0%
CC(Cc1ccc2c(c1)OCO2)N(C)C(=O)CN (stereo not shown) [Compound 4, 2-amino-N-(1-(benzo[d][1,3]dioxol-5-yl)propan-2-yl)-N-methylacetamide]	291 µM (≈ 72.9 µg/mL)	100.00%	102.99%	83.50%	94.51%	100.00%	94.49%	96.72%	96.67%	96.46%	100.00%	88.84%	92.54%	92.04%	92.48%	100.00%	108.06%	98.50%	106.18%	103.88%	% Remaining ([3]; 120 minutes): 87.42%
CC(Cc1ccc2c(c1)OCO2)NC(=O)CN (stereo not shown) [Compound 5, 2-amino-N-(1-(benzo[d][1,3]dioxol-5-yl)propan-2-yl)acetamide]	304 µM (≈ 71.8 µg/mL)	100.00%	103.33%	87.64%	90.78%	100.00%	101.17%	91.48%	95.49%	100.41%	100.00%	95.53%	97.09%	98.67%	105.87%	100.00%	99.68%	105.84%	94.42%	91.97%	% Remaining ([3]; 120 minutes): 83.06%
C[C@H](Cc1ccc2c(c1)OCO2)NC(=O)OC(C)(C)C [Compound 6, tert-butyl(R)-(1-(benzo[d][1,3]dioxol-5-yl)propan-2-yl)carbamate]	175 µM (≈ 49 µg/mL)	100%	102%	106%	92%	100.00%	87.96%	77.20%	57.49%	28.57%	100.00%	84.81%	93.60%	103.65%	91.66%	100.00%	85.17%	79.89%	56.87%	31.48%	% Remaining ([3]; 120 minutes): 95%
C[C@H](Cc1ccc2c(c1)OCO2)N(C)C(=O)OC(C)(C)C [Compound 7, tert-butyl(R)-(1-(benzo[d][1,3]dioxol-5-yl)propan-2-yl)(methyl)carbamate]	257 µM (≈ 75.3 µg/mL)	100%	101%	92%	83%	100.00%	89.90%	73.62%	61.79%	30.52%	100.00%	94.54%	105.49%	105.72%	102.75%	100.00%	74.97%	63.49%	56.42%	28.25%	% Remaining ([3]; 120 minutes): 92%
Cc1oc(=O)oc1CN[C@H](C)Cc1ccc2c(c1)OCO2 [Compound 8, (R)-4-(((1-(benzo[d][1,3]dioxol-5-yl)propan-2-yl)amino)methyl)-5-methyl-1,3-dioxol-2-one]	283 µM (≈ 82.4 µg/mL)	100%	72%	54%	25%	100%	97%	94%	90%	86%	100%	96%	93%	75%	72%	100%	103%	98%	96%	92%	% Remaining ([3]; 120 minutes): 6%
Cc1oc(=O)oc1CN(C)[C@H](C)Cc1ccc2c(c1)OCO2 [Compound 9, (R)-4-(((1-(benzo[d][1,3]dioxol-5-yl)propan-2-yl)(methyl)amino)methyl)-5-methyl-1,3-dioxol-2-one]	223 µM (≈ 68.2 µg/mL)	100%	70%	22%	4%	1000%	94%	89%	83%	72%	100%	83%	75%	55%	32%	100%	97%	92%	87%	71%	–
CC(N)Cc1ccc2c(c1)OCO2 (stereo not shown) [MDA]	–	–	–	–	–	–	–	–	–	–	–	–	–	–	–	–	–	–	–	–	Cmax ([7]; 75 mg MDA): 7.8 ng/mL; Tmax ([7]; 75 mg MDMA): 5 h; Cmax ([7]; 125 mg MDA): 13.7 ng/mL; Tmax ([7]; 125 mg MDMA): 7 h; MDA formation rate constant ([7]; estimated for both MDMA doses): about 0.75 h
